How the values were obtained:
Assay type in all cases: cell-based
[1] = molecular target: T1, AR protein (Homo sapiens, UniProt P10275, T878A); experiment: AR protein degradation in LNCaP cells (Western blot); conditions: 8 hours
T1 construct: host or cells: LNCaP FGC
T1 sequence (P10275 1-920 T878A): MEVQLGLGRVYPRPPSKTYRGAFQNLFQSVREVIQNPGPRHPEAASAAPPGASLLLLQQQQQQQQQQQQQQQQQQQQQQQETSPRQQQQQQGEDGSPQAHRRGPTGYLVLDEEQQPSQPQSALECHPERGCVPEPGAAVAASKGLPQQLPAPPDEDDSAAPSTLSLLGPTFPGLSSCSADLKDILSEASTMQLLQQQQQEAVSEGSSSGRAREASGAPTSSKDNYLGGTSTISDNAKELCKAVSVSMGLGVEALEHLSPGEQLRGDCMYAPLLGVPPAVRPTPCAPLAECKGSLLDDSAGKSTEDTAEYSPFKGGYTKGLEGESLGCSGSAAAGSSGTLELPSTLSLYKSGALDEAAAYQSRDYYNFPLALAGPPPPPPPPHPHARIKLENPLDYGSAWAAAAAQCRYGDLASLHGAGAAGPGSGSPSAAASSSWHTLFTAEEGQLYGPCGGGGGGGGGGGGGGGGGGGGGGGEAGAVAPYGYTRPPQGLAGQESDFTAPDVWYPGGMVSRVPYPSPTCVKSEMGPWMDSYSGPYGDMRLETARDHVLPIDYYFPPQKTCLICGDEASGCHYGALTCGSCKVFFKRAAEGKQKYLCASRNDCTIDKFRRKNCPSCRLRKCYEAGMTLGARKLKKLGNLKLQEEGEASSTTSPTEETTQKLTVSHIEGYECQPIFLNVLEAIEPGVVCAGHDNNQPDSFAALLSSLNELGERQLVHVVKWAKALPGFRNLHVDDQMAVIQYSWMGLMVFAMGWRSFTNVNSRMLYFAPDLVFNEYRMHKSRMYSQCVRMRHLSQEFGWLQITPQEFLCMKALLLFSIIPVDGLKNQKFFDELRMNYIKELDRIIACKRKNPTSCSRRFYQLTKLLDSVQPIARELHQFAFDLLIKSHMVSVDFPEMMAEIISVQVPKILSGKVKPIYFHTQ
Summary of the method: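 LNCaP cells exposed to compound or solvent control for 8 h, lysed in RIPA, protein normalized by BCA. AR detected by SDS-PAGE/Western blot with infrared imaging; band grayscale normalized to GAPDH to calculate AR degradation rate.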

[2] = tested on: LNCaP cells; experiment: Inhibition of LNCaP cell proliferation (WST-8); conditions: Homo sapiens, LNCaP FGC cells, 96 hours
Summary of the method: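 Cells were seeded and cultured overnight at 37 °C, 5% CO2, then exposed for 96 h to compound at 9 concentrations, 5-fold serial dilution from 10 µM final. Viability was read by WST-8 absorbance at 450 nm.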

[3] = tested on: VCaP cells; experiment: Inhibition of VCaP cell proliferation (WST-8); conditions: Homo sapiens, 168 hours
Summary of the method: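 VCaP cells seeded at 15,000/well in DMEM + 10% FBS, treated next day with nine 5-fold dilutions from 10 µM (final) at 37°C, 5% CO2. Viability read by WST-8 absorbance at 450 nm on day 9.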

SMILES | Degradation of AR protein in LNCaP cells, 10 nM (%) [1] [%] | Degradation of AR protein in LNCaP cells, 100 nM (%) [1] [%] | IC50 [2] [µM] | IC50 [3] [µM]
COc1cc(O[C@H]2C(C)(C)[C@H](NC(=O)c3ccc(N4CCC(C)(CN5CCC6(CCc7cc(C(=O)N[C@H]8CCC(=O)NC8=O)c(F)cc7O6)CC5)CC4)nn3)C2(C)C)ccc1C#N [A-P-48, 1'-((1-(6-(((1R,3R)-3-(4-cyano-3-methoxyphenoxy)-2,2,4,4-tetramethylcyclobutyl)carbamoyl)pyridazin-3-yl)-4-methylpiperidin-4-yl)methyl)-N-((S)-2,6-dioxopiperidin-3-yl)-7-fluorospiro[chroman-2,4'-piperidin]-6-carboxamide] | 45 | 63 | 0.86 | 0.33
COc1cc(O[C@H]2C(C)(C)[C@H](NC(=O)c3ccc(N4CCC(F)(CN5CCC6(CCc7cc(C(=O)N[C@H]8CCC(=O)NC8=O)c(F)cc7O6)CC5)CC4)cc3)C2(C)C)ccc1C#N [A-P-52, 1'-((1-(4-(((1r,3r)-3-(4-cyano-3-methoxyphenoxy)-2,2,4,4-tetramethylcyclobutyl)carbamoyl)phenyl)-4-fluoropiperidin-4-yl)methyl)-N-((S)-2,6-dioxopiperidin-3-yl)-7-fluorospiro[chroman-2,4'-piperidin]-6-carboxamide] | -56 | 23 | 0.2 | 4.24
COc1cc(O[C@H]2C(C)(C)[C@H](NC(=O)c3ccc(N4CCC(CN5CCN6c7ccc(C(=O)N[C@H]8CCC(=O)NC8=O)cc7OC[C@@H]6C5)CC4)cc3)C2(C)C)ccc1C#N [A-P-67] | 55 | 85 | 7.22 | 0.17
C[C@H]1CC2(CCN(c3ccc(C(=O)N4CCC(CN5CCN6c7ccc(C(=O)N[C@H]8CCC(=O)NC8=O)cc7OC[C@H]6C5)CC4)cc3)CC2)CN1c1ccc(C#N)c(Cl)c1 [A-P-68] | 51 | 84 | 0.97 | 0.0045

More lines, in order of falling IC50 [2], values ahead:

Degradation of AR protein in LNCaP cells, 10 nM (%) [1] [%] | Degradation of AR protein in LNCaP cells, 100 nM (%) [1] [%] | IC50 [2] [µM] | IC50 [3] [µM] | SMILES
48 | 62 | 0.6 | 0.041 | COc1cc(O[C@H]2C(C)(C)[C@H](NC(=O)c3ccc(N4CCC(C)(CN5CCC6(CCc7cc(C(=O)N[C@H]8CCC(=O)NC8=O)c(F)cc7O6)CC5)CC4)nc3)C2(C)C)ccc1C#N [A-P-49, 1'-((1-(5-(((1R,3R)-3-(4-cyano-3-methoxyphenoxy)-2,2,4,4-tetramethylcyclobutyl)carbamoyl)pyridin-2-yl)-4-methylpiperidin-4-yl)methyl)-N-((S)-2,6-dioxopiperidin-3-yl)-7-fluorospiro[chroman-2,4'-piperidin]-6-carboxamide]
52 | 85 | 0.57 | 0.3 | CC1(C)[C@H](NC(=O)c2ccc(N3CCC(CN4CCC5(CCc6cc(C(=O)N[C@H]7CCC(=O)NC7=O)c(F)cc6O5)CC4)CC3)nc2)C(C)(C)[C@H]1Oc1ccc(C#N)c(C(F)(F)F)c1 [A-P-45, 1'-((1-(5-(((1R,3R)-3-(4-cyano-3-(trifluoromethyl)phenoxy)-2,2,4,4-tetramethylcyclobutyl)carbamoyl)pyridin-2-yl)piperidin-4-yl)methyl)-N-((S)-2,6-dioxopiperidin-3-yl)-7-fluorospiro[chroman-2,4'-piperidin]-6-carboxamide]
73 | 91 | 0.18 | 0.051 | CC1(C)[C@H](NC(=O)c2ccc(N3CCC(CN4CCC5(CCc6cc(C(=O)N[C@H]7CCC(=O)NC7=O)c(F)cc6O5)CC4)CC3)nc2)C(C)(C)[C@H]1Oc1ccc(C#N)c(Cl)c1 [A-P-50, 1'-((1-(5-(((1R,3R)-3-(3-chloro-4-cyanophenoxy)-2,2,4,4-tetramethylcyclobutyl)carbamoyl)pyridin-2-yl)piperidin-4-yl)methyl)-N-((S)-2,6-dioxopiperidin-3-yl)-7-fluorospiro[chroman-2,4'-piperidin]-6-carboxamide]

Source: EP4722219A1 (Gan & Lee Pharmaceuticals Co., Ltd., priority 2023, dated 2024)
